From US10173991B2, “Sulfone amide linked benzothiazole inhibitors of endothelial lipase” (BRISTOL-MYERS SQUIBB COMPANY, priority 2014, dated 2019)

These compounds were tested against Endothelial lipase (EL) (Homo sapiens (Human), UniProt Q9Y5X9) (assay: Endothelial lipase (EL) enzymatic assay with fluorescent substrate A10070 in DMPG vesicles).
Assay type: biochemical
Summary of the method: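 Compounds were preincubated with enzyme for 30 min at 37° C before FRET-substrate vesicles (A10070 in DMPG, 0.11 mole fraction) were added. Reaction rates were obtained from the 300–900 sec slope of fluorescence at 490/530 nm.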

Chain of Endothelial lipase (EL) (Q9Y5X9 21-500): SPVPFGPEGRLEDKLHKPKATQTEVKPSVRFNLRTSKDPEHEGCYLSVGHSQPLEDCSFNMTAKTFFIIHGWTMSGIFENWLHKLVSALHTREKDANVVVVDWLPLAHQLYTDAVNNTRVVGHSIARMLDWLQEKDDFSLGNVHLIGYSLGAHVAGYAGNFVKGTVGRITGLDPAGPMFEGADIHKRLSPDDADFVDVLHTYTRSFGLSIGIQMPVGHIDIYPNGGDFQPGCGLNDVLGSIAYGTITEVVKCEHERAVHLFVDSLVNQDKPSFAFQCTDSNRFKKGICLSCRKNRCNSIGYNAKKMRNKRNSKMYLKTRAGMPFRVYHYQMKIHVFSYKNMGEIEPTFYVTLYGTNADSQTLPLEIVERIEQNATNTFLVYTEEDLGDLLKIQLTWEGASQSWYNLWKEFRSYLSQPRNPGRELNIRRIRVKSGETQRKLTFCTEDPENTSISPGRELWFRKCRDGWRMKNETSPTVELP

IC50 [nM] | SMILES
4 | COC(=O)Nc1cccc(-c2cc3sc(C(C(=O)NCC(=O)NC4CC4)S(C)(=O)=O)nc3cc2F)c1 (stereo not shown) [Example 117, methyl N-{3-[2-({[(cyclopropyl-carbamoyl)methyl]carbamoyl} (methanesulfonyl)methyl)-5-fluoro-1,3-benzothiazol-6-yl]phenyl} carbamate]
82 | COCCS(=O)(=O)C(C(=O)NCC(=O)NC1CC1)c1nc2cc(-c3cccc(OC)c3)ccc2s1 (stereo not shown) [Example 84, N-[(cyclopropyl-carbamoyl)methyl]-2-(2-methoxyethane-sulfonyl)-2-[5-(3-methoxyphenyl)-1,3-benzothiazol-2-yl]acetamide]
2 | COCCS(=O)(=O)C(C(=O)NCC(=O)NC1CC1)c1nc2cc(Cl)c(-c3ccc(NC(C)=O)cc3)cc2s1 (stereo not shown) [Example 96, 2-[5-chloro-6-(4-acetamidophenyl)-1,3-benzothiazol-2-yl]-N-[(cyclopropyl-carbamoyl)methyl]-2-(2-methoxyethane-sulfonyl) acetamide]
4 | COCCNC(=O)CNC(=O)C(c1nc2ccc(-c3ccc(C(=O)NCCOC)cc3)cc2s1)S(=O)(=O)c1ccc(F)cc1 (stereo not shown) [Example 462, 4-{2-[(4-fluorobenzene-sulfonyl)({[(2-methoxyethyl)carbamoyl]methyl}carbamoyl)methyl]-1,3-benzothiazol-6-yl}-N-(2-methoxyethyl) benzamide]
103 | CC(C)(C)OC(=O)N1CC(S(=O)(=O)C(C(=O)NCC(=O)NC2CC2)c2nc3ccc(-c4ccc(F)nc4)cc3s2)C1 (stereo not shown) [Example 227, tert-butyl 3-({[(cyclopropyl-carbamoyl)methyl]carbamoyl}[6-(6-fluoropyridin-3-yl)-1,3-benzothiazol-2-yl]methanesulfonyl) azetidine-1-carboxylate]
54 | CC(=O)N(C)c1ccc(-c2ccc3nc(C(C(=O)NCC(=O)NC4CC4)S(=O)(=O)CCC(F)(F)F)sc3c2)cc1 (stereo not shown) [Example 28, N-[(cyclopropyl-carbamoyl)methyl]-2-{6-[4-(N-methylacetamido)phenyl]-1,3-benzothiazol-2-yl}-2-(3,3,3-trifluoropropane-sulfonyl) acetamide]
9 | CC(C)S(=O)(=O)C(C(=O)NCC(=O)NC1CC1)c1nc2cc(-c3ccc4cnn(C)c4c3)c(F)cc2s1 (stereo not shown) [Example 273, N-[(cyclopropyl-carbamoyl)methyl]-2-[6-fluoro-5-(1-methyl-1H-indazol-6-yl)-1,3-benzothiazol-2-yl]-2-(propane-2-sulfonyl)acetamide]
34 | COCCS(=O)(=O)C(C(=O)NCC(=O)NCCOC(C)C)c1nc2cc(-c3ccn(C)c(=O)c3)c(F)cc2s1 (stereo not shown) [Example 353, 2-[6-fluoro-5-(1-methyl-2-oxo-1,2-dihydropyridin-4-yl)-1,3-benzothiazol-2-yl]-2-(2-methoxyethane-sulfonyl)-N-({[2-(propan-2-yloxy)ethyl]carbamoyl}methyl)acetamide]
7 | Cc1cc2nc(C(C(=O)NCC(=O)NC3CC3)S(=O)(=O)C(C)C)sc2cc1-c1ccc(C(C)C)nc1 (stereo not shown) [Example 253, N-[(cyclopropyl-carbamoyl)methyl]-2-{5-methyl-6-[6-(propan-2-yl)pyridin-3-yl]-1,3-benzothiazol-2-yl}-2-(propane-2-sulfonyl) acetamide]
2 | COCCOC(=O)Nc1ccc(-c2cc3sc(C(C(=O)NCC(=O)NC4CC4)S(=O)(=O)C4CC4)nc3cc2F)cc1 (stereo not shown) [Example 536, 2-methoxyethyl N-(4-{2-[(cyclopropane-sulfonyl) ({[(cyclopropyl-carbamoyl)methyl]carbamoyl})methyl]-5-fluoro-1,3-benzothiazol-6-yl}phenyl) carbamate]
38 | CC(C)S(=O)(=O)C(C(=O)NCC(=O)NC1CC1)c1nc2cc(-c3ccc4c(c3)CC(=O)N4)c(F)cc2s1 (stereo not shown) [Example 266, N-[(cyclopropyl-carbamoyl)methyl]-2-[6-fluoro-5-(2-oxo-2,3-dihydro-1H-indol-5-yl)-1,3-benzothiazol-2-yl]-2-(propane-2-sulfonyl)acetamide]
7 | CC(C)S(=O)(=O)C(C(=O)NCC(=O)NC1CC1)c1nc2cc(F)c(-c3cccc(NC(=O)OCc4ccccc4)c3)cc2s1 (stereo not shown) [Example 557, benzyl N-{3-[2-({[(cyclopropyl-carbamoyl)methyl]carbamoyl} (propane-2-sulfonyl)methyl)-5-fluoro-1,3-benzothiazol-6-yl]phenyl}carbamate]
7 | COCCS(=O)(=O)C(C(=O)NCC(=O)NC1CC1)c1nc2ccc(-c3cccnc3F)cc2s1 (stereo not shown) [Example 318, N-[(cyclopropyl-carbamoyl)methyl]-2-[6-(2-fluoropyridin-3-yl)-1,3-benzothiazol-2-yl]-2-(2-methoxyethane-sulfonyl)acetamide]
15 | Cc1ccc(-c2cc3sc(C(C(=O)NCC(=O)NC4CC4)S(=O)(=O)C(C)C)nc3cc2C)cn1 (stereo not shown) [Example 252, N-[(cyclopropyl-carbamoyl)methyl]-2-[5-methyl-6-(6-methylpyridin-3-yl)-1,3-benzothiazol-2-yl]-2-(propane-2-sulfonyl)acetamide]
20 | C=CCS(=O)(=O)C(C(=O)NCC(=O)NC1CC1)c1nc2ccc(-c3ccc(F)nc3)cc2s1 (stereo not shown) [Example 59, N-[(cyclopropyl-carbamoyl)methyl]-2-[6-(6-fluoropyridin-3-yl)-1,3-benzothiazol-2-yl]-2-(prop-2-ene-1-sulfonyl) acetamide]
3 | O=C(CNC(=O)C(c1nc2cc(F)c(-c3ccc(NC(=O)OCc4ccccc4)nc3)cc2s1)S(=O)(=O)CCC(F)(F)F)NC1CC1 (stereo not shown) [Example 554, benzyl N-{5-[2-({[(cyclopropyl-carbamoyl)methyl]carbamoyl}(3,3,3-trifluoropropane-sulfonyl)methyl)-5-fluoro-1,3-benzothiazol-6-yl]pyridin-2-yl} carbamate]
247 | COCCS(=O)(=O)C(C(=O)NCC(=O)NC1CC1)c1nc2ccc(-c3ccc(Cl)cn3)cc2s1 (stereo not shown) [Example 303, 2-[6-(5-chloropyridin-2-yl)-1,3-benzothiazol-2-yl]-N-[(cyclopropyl-carbamoyl)methyl]-2-(2-methoxyethane-sulfonyl)acetamide]
65 | CS(=O)(=O)C(C(=O)NCC(=O)NC1CC1)c1nc2cc(F)c(-c3cccnc3C(F)(F)F)cc2s1 (stereo not shown) [Example 326, N-[(cyclopropyl-carbamoyl)methyl]-2-{5-fluoro-6-[2-(trifluoromethyl)pyridin-3-yl]-1,3-benzothiazol-2-yl}-2-methanesulfonyl-acetamide]
12 | COCCS(=O)(=O)C(C(=O)NCC(=O)NC1CC1)c1nc2ccc(-c3ccc(C(=O)N4CC(C)(O)C4)cc3)cc2s1 (stereo not shown) [Example 405, N-[(cyclopropyl-carbamoyl)methyl]-2-{6-[4-(3-hydroxy-3-methylazetidine-1-carbonyl)phenyl]-1,3-benzothiazol-2-yl}-2-(2-methoxyethane-sulfonyl)acetamide]
4 | COCCOC(=O)Nc1ccc(-c2cc3sc(C(C(=O)NCC(=O)NC4CC4)S(=O)(=O)CCOC)nc3cc2F)cc1 (stereo not shown) [Example 535, 2-methoxyethyl N-{4-[2-({[(cyclopropyl-carbamoyl)methyl]carbamoyl}(2-methoxyethane-sulfonyl)methyl)-5-fluoro-1,3-benzothiazol-6-yl]phenyl} carbamate]
4 | COC(=O)Nc1ccc(-c2cc3nc(C(C(=O)NCC(=O)NC4CC4)S(C)(=O)=O)sc3cc2F)cc1 (stereo not shown) [Example 114, methyl N-{4-[2-({[(cyclopropyl-carbamoyl)methyl]caramoyl} (methanesulfonyl)methyl)-6-fluoro-1,3-benzothiazol-5-yl]phenyl} carbamate]
14 | COCCS(=O)(=O)C(C(=O)NCC(=O)NCCOC(C)C)c1nc2cc(-c3ccc(F)nc3)c(F)cc2s1 (stereo not shown) [Example 352, 2-[6-fluoro-5-(6-fluoropyridin-3-yl)-1,3-benzothiazol-2-yl]-2-(2-methoxyethane-sulfonyl)-N-({[2-(propan-2-yloxy)ethyl]carbamoyl}methyl)acetamide]
13 | COCCS(=O)(=O)C(C(=O)NCC(=O)NC1CC1)c1nc2cc(-c3ccc(F)nc3)ccc2s1 (stereo not shown) [Example 385, N-[(cyclopropyl-carbamoyl)methyl]-2-[5-(6-fluoropyridin-3-yl)-1,3-benzothiazol-2-yl]-2-(2-methoxyethane-sulfonyl)acetamide]
4 | COCCS(=O)(=O)C(C(=O)NCC(=O)NC1CC1)c1nc2cc(C)c(-c3ccc4c(=O)n(C)ccc4c3)cc2s1 (stereo not shown) [Example 189, N-[(cyclopropyl-carbamoyl)methyl]-2-(2-methoxyethane-sulfonyl)-2-[5-methyl-6-(2-methyl-1-oxo-1,2-dihydro-isoquinolin-6-yl)-1,3-benzothiazol-2-yl]acetamide]
1 | COCCS(=O)(=O)C(C(=O)NCC(=O)NC1CC1)c1nc2cc(-c3ccc(NC(=O)OCc4ccccc4)cc3)c(F)cc2s1 (stereo not shown) [Example 10, benzyl N-{4-[2-({[(cyclopropyl-carbamoyl)methyl]carbamoyl}(2-methoxyethane-sulfonyl)methyl)-6-fluoro-1,3-benzothiazol-5-yl]phenyl} carbamate]
7 | COCCS(=O)(=O)C(C(=O)NCC(=O)NC1CC1)c1nc2cc(F)c(-c3cnc(C4CC4)nc3)cc2s1 (stereo not shown) [Example 155, N-[(cyclopropyl-carbamoyl)methyl]-2-[6-(2-cyclopropyl-pyrimidin-5-yl)-5-fluoro-1,3-benzothiazol-2-yl]-2-(2-methoxyethane-sulfonyl) acetamide]
2 | COC(=O)Nc1ccc(-c2cc(Cl)c3nc(C(C(=O)NCC(=O)NC4CC4)S(C)(=O)=O)sc3c2)cc1F (stereo not shown) [Example 124, methyl N-{4-[4-chloro-2-({[(cyclopropyl-carbamoyl)methyl]carbamoyl} (methanesulfonyl)methyl)-1,3-benzothiazol-6-yl]-2-fluorophenyl} carbamate]
22 | CC(C)S(=O)(=O)C(C(=O)NCC(=O)NC1CC1)c1nc2c(F)cc(-c3cnc(-c4ccccc4)nc3)cc2s1 (stereo not shown) [Example 282, N-[(cyclopropyl-carbamoyl)methyl]-2-[4-fluoro-6-(2-phenylpyrimidin-5-yl)-1,3-benzothiazol-2-yl]-2-(propane-2-sulfonyl)acetamide]
